Data on five molecules can be found in patent US10173982B2, “Picolinamides as fungicides” (Dow AgroSciences LLC, priority 2016, dated 2019).

SMILES strings stand for the structures. Where two headings read alike, the source gives them in different places.

Holding throughout (format): in vivo
One test relates to Puccinia triticina. As to the kind of experiment: Fungicidal activity: wheat brown rust (PUCCRT), percent disease control on wheat seedlings. To be noted: Puccinia triticina, LV (low volume) activity at 121.5 g/H. As to the method: Technical grades of materials were dissolved in acetone, which were then mixed with nine volumes of water containing 110 ppm Triton X-100. The fungicide solutions were applied onto wheat seedlings using an automated booth sprayer to run-off. All sprayed plants were allowed to air dry prior to further handling. All fungicides were evaluated using the aforementioned method for their activity vs. all target diseases, unless stated otherwise. Wheat leaf blotch and brown rust activity were also evaluated using track spray applications, in which case the fungicides were formulated as EC formulations, containing 0.1% Trycol 5941 in the spray solutions. Wheat plants (variety Yuma) were grown from seed in a greenhouse in 50% mineral soil/50% soil-less Metro mix until the first leaf was fully emerged, with 7-10 seedlings per pot. These plants were inoculated with an aqueous spore suspension of Puccinia triticina either prior to or after fungicide treatments. After inoculation the plants were kept in a dark dew room at 22° C. with 100% relative humidity overnight to permit spores to germinate and infect the leaf. The plants were then transferred to a greenhouse set at 24° C. for disease to develop. Fungicide formulation, application and disease assessment followed the procedures as described in the Example A. Results of the evaluations are shown below in Table 4.

The test system of a further test is Zymoseptoria tritici. Kind of test: Fungicidal activity: leaf blotch of wheat (SEPTTR), percent disease control on wheat seedlings. To be noted: Zymoseptoria tritici, LV (low volume) activity at 121.5 g/H. As to the method:
Technical grades of materials were dissolved in acetone, which were then mixed with nine volumes of water containing 110 ppm Triton X-100. The fungicide solutions were applied onto wheat seedlings using an automated booth sprayer to run-off. All sprayed plants were allowed to air dry prior to further handling. All fungicides were evaluated using the aforementioned method for their activity vs. all target diseases, unless stated otherwise. Wheat leaf blotch and brown rust activity were also evaluated using track spray applications, in which case the fungicides were formulated as EC formulations, containing 0.1% Trycol 5941 in the spray solutions. Wheat plants (variety Yuma) were grown from seed in a greenhouse in 50% mineral soil/50% soil-less Metro mix until the first leaf was fully emerged, with 7-10 seedlings per pot. These plants were inoculated with an aqueous spore suspension of Zymoseptoria tritici either prior to or after fungicide treatments. After inoculation the plants were kept in 100% relative humidity (one day in a dark dew chamber followed by two to three days in a lighted dew chamber at 20° C.) to permit spores to germinate and infect the leaf. The plants were then transferred to a greenhouse set at 20° C. for disease to develop. When disease symptoms were fully expressed on the 1st leaves of untreated plants, infection levels were assessed on a scale of 0 to 100 percent disease severity. Percent disease control was calculated using the ratio of disease severity on treated plants relative to untreated plants.

The subject of another test is Phakopsora pachyrhizi. As to the kind of experiment: Fungicidal activity: Asian soybean rust (PHAKPA), disease control on soybean seedlings. To be noted: High volume at 25 ppm. The procedure:
Technical grades of materials were dissolved in acetone, which were then mixed with nine volumes of water containing 0.011% Tween 20. The fungicide solutions were applied onto soybean seedlings using an automated booth sprayer to run-off. All sprayed plants were allowed to air dry prior to further handling.
Soybean plants (variety Williams 82) were grown in soil-less Metro mix, with one plant per pot. Two weeks old seedlings were used for testing. Plants were inoculated either 3 days prior to or 1 day after fungicide treatments. Plants were incubated for 24 h in a dark dew room at 22° C. and 100% relative humidity then transferred to a growth room at 23° C. for disease to develop. Disease severity was assessed on the sprayed leaves.

Where [1] appears, read: 24 h, 1 Day Protectant, read-out: PUCCRT 1DP disease control rating.
[2] abbreviates: 72 h, 3 Day Curative, read-out: PUCCRT 3DC disease control rating.
[3] abbreviates: 24 h, 1 Day Protectant, read-out: SEPTTR 1DP disease control rating.
[4] abbreviates: 72 h, 3 Day Curative, read-out: SEPTTR 3DC disease control rating.
Setting [5] is: 24 h, 1 Day Protectant, read-out: PHAKPA 1DP disease control rating.
Setting [6] is: 72 h, 3 Day Curative, read-out: PHAKPA 3DC disease control rating.

As for `COc1ccnc(C(=O)N[C@@H](C)C(=O)O[C@@H](C)[C@H](Sc2ccccc2)c2ccccc2)c1OCOC(C)=O` [Compound 80], the pest or weed control at 121.5 g/ha with Puccinia triticina (setting [1]) is > 80%; in the test on Puccinia triticina (setting [2]), ≤ 80%; in the test with Zymoseptoria tritici (setting [3]), ≤ 80%; in the test with Zymoseptoria tritici (setting [4]), ≤ 80%. The pest or weed control at 25 ppm with Phakopsora pachyrhizi (setting [5]) and with Phakopsora pachyrhizi (setting [6]) was ≤ 80% throughout.
`COc1ccnc(C(=O)N[C@@H](C)C(=O)O[C@@H](C)[C@H](Sc2ccccc2)c2ccccc2)c1OC(=O)C(C)C` [Compound 81]: the pest or weed control at 121.5 g/ha in the test on Puccinia triticina (setting [1]), with Puccinia triticina (setting [2]), in the test with Zymoseptoria tritici (setting [3]) and in the test with Zymoseptoria tritici (setting [4]) was ≤ 80% in each case. In addition, the pest or weed control at 25 ppm in the test on Phakopsora pachyrhizi (setting [5]) and in the test with Phakopsora pachyrhizi (setting [6]) was ≤ 80% throughout.
In the case of `COc1ccnc(C(=O)N[C@@H](C)C(=O)O[C@@H](C)[C@H](Sc2ccccc2)c2ccccc2)c1OC(C)=O` [Compound 82], the pest or weed control at 121.5 g/ha with Puccinia triticina (setting [1]) was > 80%; with Puccinia triticina (setting [2]) it was ≤ 80%; in the test with Zymoseptoria tritici (setting [3]), ≤ 80%; with Zymoseptoria tritici (setting [4]), ≤ 80%. In addition, the pest or weed control at 25 ppm in the test with Phakopsora pachyrhizi (setting [5]) and in the test with Phakopsora pachyrhizi (setting [6]) was ≤ 80% in each case.
Turning to `COc1cc(F)ccc1[C@@H](Sc1ccccc1)[C@H](C)OC(=O)[C@H](C)NC(=O)c1nccc(OC)c1OC(C)=O` [Compound 84], the pest or weed control at 121.5 g/ha with Puccinia triticina (setting [1]) was ≤ 80%; in the test with Puccinia triticina (setting [2]) it was ≤ 80%; in the test on Zymoseptoria tritici (setting [3]), > 80%; in the test on Zymoseptoria tritici (setting [4]), ≤ 0%. Moreover, the pest or weed control at 25 ppm in the test on Phakopsora pachyrhizi (setting [5]) is ≤ 80%; with Phakopsora pachyrhizi (setting [6]) it was ≤ 0%.
`COc1ccnc(C(=S)N[C@@H](C)C(=O)O[C@@H](C)[C@H](Sc2ccccc2)c2ccc(F)cc2)c1OC(C)=O` [Compound 85]: the pest or weed control at 121.5 g/ha with Puccinia triticina (setting [1]) was ≤ 80%; in the test on Puccinia triticina (setting [2]), ≤ 0%; with Zymoseptoria tritici (setting [3]), ≤ 80%; in the test with Zymoseptoria tritici (setting [4]), ≤ 0%. The results for the pest or weed control at 25 ppm in the test with Phakopsora pachyrhizi (setting [5]) and in the test on Phakopsora pachyrhizi (setting [6]) were ≤ 80% and ≤ 0%, respectively.
